According to US10253002B2, “Compounds and methods of treating infections” (Neoculi Pty Ltd., priority 2013, dated 2019):
In brackets after ≈: the same amount, converted by molar mass. Read-outs that look alike come from different tables or passages of the source.

Assays:
[1] = tested on: cell wall synthesis in S. aureus ATCC 29213; experiment: Macromolecular synthesis assay: cell wall synthesis ([14C]N-acetylglucosamine); type: cell-based, Staphylococcus aureus
Procedure: (§1) Cells were grown at 35° C. overnight on Trypticase Soy agar. A colony from the plate was used to inoculate 10 ml of Mueller Hinton broth II (MHBII), and the culture was grown to early exponential growth phase (OD600==0.2 to 0.3) while incubating in a shaker at 35° C. and 200 rpm.
Bacterial cells in early exponential growth phase were transferred to M9 minimal medium and added to 1.5 mL eppendorf tubes (100 μL/tube) containing various concentrations of test compound or control antibiotics (5 μL) at 20× the final concentration in 100% DMSO as described above. Following a 5 min incubation at 37° C., [^14C]N-acetylglucosamine (0.4 μCi/reaction) was added to each tube and incubated for 45 min in a 37° C. heating block. Reactions were stopped through the addition of 100 μL of 8% SDS to each tube. Reactions were then heated at 95° C. for 30 min in a heating block, cooled, briefly centrifuged, and spotted onto pre-wet HA filters ([…]). After washing three times with 5 mL of 0.1% SDS, the filters were rinsed two times with 5 ml of deionized water, allowed to dry, and then counted using a Beckman LS3801 liquid scintillation counter.

[2] = tested on: S. aureus clinical isolates (MRSA and MSSA); experiment: Minimum bactericidal concentration (MBC), Example 4; type: cell-based, Staphylococcus aureus; conditions: for MBC: Staphylococcus aureus
Source text: The MBC was defined as the lowest drug concentration at which 99.95% of the original inoculum was eliminated.

[3] = tested on: non-VRE Enterococcus faecalis USA01; experiment: MBC (CLSI methodology), Example 8; type: cell-based; conditions: for NCL812 MBC test, growth on Sheep Blood Agar / Number of Bacteria Growing after 24 hours per ml of sample: E. faecalis (USA01)
[4] = tested on: lipid synthesis in S. aureus ATCC 29213; experiment: Macromolecular synthesis assay: lipid synthesis ([3H] glycerol); type: cell-based, Staphylococcus aureus; conditions: at the MIC
Procedure: as §1
Bacterial cells were grown to early exponential growth phase in MHBII broth and added to 1.5 mL eppendorf tubes (in triplicate) containing various concentrations of test compound or control antibiotics as described above. Following a 5 min incubation at room temperature, [^3H] glycerol was added at 0.5 μCi per reaction.
Reactions were allowed to proceed at room temperature for 15 min and then stopped through the addition of 375 μL chloroform/methanol (1:2) followed by vortexing for 20 seconds after each addition. Chloroform (125 μL) was then added to each reaction, vortexed, followed by the addition of 125 μL dH2O and vortexing. Reactions were centrifuged at 13,000 rpm for 10 min, and then 150 μL of the organic phase was transferred to a scintillation vial and allowed to dry in a fume hood for at least 1 hr. Samples were then counted via liquid scintillation counting.

[5] = tested on: D39 cell membrane ultra-structure; experiment: Transmission electron microscopy morphometric analysis; type: cell-based, Streptococcus pneumoniae
Procedure: Morphological appearance and morphometric analysis of the cell membrane was determined using transmission electron microscopy (TEM). Bacterial suspensions and 10 mL cultures of […] were prepared as before. […] Critical time points for TEM work were determined by analysing trends in the growth curves produced from the kill kinetics studies. […] Samples were fixed using modified protocols defined by a previous study examining cell wall ultrastructure of S. pneumoniae ([…]. et al. 2005. Infect Immun 73:4653-4667). […] The samples were then embedded in fresh LR White resin and incubated at 50° C. for 48 h. Sections were cut to 1 μm using a glass knife, stained with Toluidene Blue and viewed under a light microcrope at 400× to identify the presence of stained pneumococci. At least four ultra-thin sections were then cut to 90 nm using a diamond knife and placed on matrix grids, one section per grid. […] Stained sections were then placed on grids and viewed between 25000× and 130000× on a Philips CM100 Transmission Electron Microscope. Images were obtained at 130000× magnification and analysed using analySIS [Olympus Soft Imaging Systems].

[6] = Bioassay ranking of the analogues tested; conditions: M + R (MRSA and VRE combined)
MRSA = experiment: Kill kinetics assay, Example 7; type: cell-based, Staphylococcus aureus
Procedure: MRSA/VRE were grown overnight on Columbia SBA at 37° C. A few colonies of bacteria were then suspended in CAMHB and adjusted to an optical density of 0.08 to 0.10. The bacterial suspension was diluted 1:10. […] The tubes were incubated at 37° C. In order to determine the number of viable bacteria present at various time points, a 100 μL aliquot was removed from each tube and diluted in normal saline. Then, 100 μL of each dilution was spread onto colony count agar, in duplicate, and incubated for 48 h at 37° C. After 24 h the numbers of colonies present on each plate were counted and therefore the number of viable bacteria present in the original suspension enumerated. Plates were re-checked after 48 hours.

N=C(N/N=C/c1ccc(Cl)cc1)N/N=C/c1ccc(Cl)cc1 [NCL812, 1,3-bis[(E)-(4-chlorophenyl)methyleneamino]guanidine]
inhibition of cell wall synthesis ([1]; 4 fold the MIC): approximately 68% | inhibition of cell wall synthesis ([1]; 8 fold the MIC): ~52% | S. aureus isolates with MBC equivalent to the MIC ([2]; 30 isolates): 93.33% | MBCrange ([2]; CA-MRSA (n = 10)): 2 to 4 µg/mL | MBCrange ([2]; HA-MRSA (n = 10)): 4 to 8 µg/mL | MBCrange ([2]; Methicillin-susceptible staphylococci (n = 10)): 2 to 8 µg/mL | MBC ([2]; CA-MRSA (n = 10), read-out: MBC50): 4 µg/mL (≈ 12 µM) | MBC ([2]; CA-MRSA (n = 10), read-out: MBC90): 4 µg/mL (≈ 12 µM) | MBC ([2]; HA-MRSA (n = 10), read-out: MBC50): 8 µg/mL (≈ 23.9 µM) | MBC ([2]; HA-MRSA (n = 10), read-out: MBC90): 8 µg/mL (≈ 23.9 µM) | MBC ([2]; Methicillin-susceptible staphylococci (n = 10), read-out: MBC50): 4 µg/mL (≈ 12 µM) | MBC ([2]; Methicillin-susceptible staphylococci (n = 10), read-out: MBC90): 8 µg/mL (≈ 23.9 µM) | MBC ([2]; Total bacterial isolates (n = 30), read-out: MBC50): 4 µg/mL (≈ 12 µM) | MBC ([2]; Total bacterial isolates (n = 30), read-out: MBC90): 8 µg/mL (≈ 23.9 µM) | MBCrange ([2]; Total bacterial isolates (n = 30)): 2 to 8 µg/mL | NCL812 MBC test, growth on Sheep Blood Agar ([3]; 4 μg/ml): + | Number of Bacteria Growing after 24 hours per ml of sample ([3]; 4 μg/ml): 488 CFU/ml | NCL812 MBC test, growth on Sheep Blood Agar ([3]; 8 μg/ml): + | NCL812 MBC test, growth on Sheep Blood Agar ([3]; 16 μg/ml): + | NCL812 MBC test, growth on Sheep Blood Agar ([3]; 32 μg/ml): + | Number of Bacteria Growing after 24 hours per ml of sample ([3]; 32 μg/ml): 7 CFU/ml | NCL812 MBC test, growth on Sheep Blood Agar ([3]; 64 μg/ml): + | Number of Bacteria Growing after 24 hours per ml of sample ([3]; 64 μg/ml): 1 CFU/ml | NCL812 MBC test, growth on Sheep Blood Agar ([3]; […]): + | MBC test outcome ([3]; E. faecalis USA01): growth of bacteria was observed at all concentrations of NCL812 tested | inhibition of lipid synthesis [4]: approximately 90% | cell membrane thickness ([5]; D39 exposed to 16 μg/mL NCL812 for 6 h, untreated 4.35±0.24): 6.43±0.29 nm | width of periplasmic space ([5]; D39 treated with 16 μg/mL NCL812 for 6 h, untreated 3.91±0.14): 4.54±0.096 nm | Periplasmic space, Mean ± SEM ([5]; D39 treated with 16 μg/ml NCL812 for 6 h, n = 11, growth control 3.91 ± 0.14 nm): 4.54 ± 0.096 nm, | Cell membrane, Mean ± SEM ([5]; D39 treated with 16 μg/ml NCL812 for 6 h, n = 13, growth control 4.35 ± 0.24 nm): 6.43 ± 0.29 nm, | M + R [6]: 2.375 µg/mL | numbers of bacteria versus control (MRSA; after 24 h, all NCL812 concentrations): not significantly different to the control | reduction in comparison to the growth control (MRSA; at 4 h): at least 2.5 log10 CFU/mL | difference between the control and bacteria exposed to NCL812 (MRSA; at 8 h): ≥ 3.5 log10 CFU/mL
